Reference: patent US20070148666A1, “Diagnosis and Treatment of Brain Cancer” (priority 2005, published 2007)

Tests used:
Format in all cases: cell-based, human
[1] = system: D283 medulloblastoma cells; test: Cell viability of D283 cells treated with TSA (MTT assay, washout experiments)
Description: The inventors tested cell viability of D283 medulloblastoma cells treated with increasing doses of the HDAC inhibitor TSA (FIG. 1A). They also tested cell viability was measured by an MTT assay.
The inventors also determined the minimum time of TSA exposure needed to induce cell death (FIG. 1B). D283 cells were exposed to TSA for various time points and the media replaced for an additional 24 h prior to assaying for cell viability.
To identify genes regulated by changes in histone H3 K9 acetylation status, the inventors first determined the optimal dose and timing for treating D283 medulloblastoma cells with TSA. The D283 cell line was chosen since it is widely used as a cell model of medulloblastoma and is well characterized. […] For microarray studies, the inventors treated D283 cells with 0.2 μM TSA for 9 hours. […] To confirm the microarray analysis, real-time quantitative PCR (qPCR) was performed on nine randomly selected genes (FIG. 12A).

[2] = system: D283 cells; test: FACS analysis of TUNEL-stained D283 cells (apoptosis); conditions: 12 hours, TUNEL FACS (DMSO 13%)
Description: FIGS. 11A-11C. Effects of TSA on D283 cells. (FIG. 11A) Dose response curves of cell viability for D283 medulloblastoma cells treated with increasing doses of the HDAC inhibitor TSA. (FIG. 11B) FACs analysis of TUNEL-stained (BD Biosciences) D283 cells treated with TSA for 12 hours. FACs dot plots of cells with DMSO (i), and cells treated with 0.02 μM and 0.2 μM TSA (ii and iii).

[3] = system: D283 cells; test: Whole genome expression microarray of TSA treated D283 cells; conditions: 0.2 μM TSA, 9 hours, q<0.001
Description: (§1) RNA from vehicle and TSA treated D283 cells was reverse-transcribed and hybridized to the ABI 1700 Human Genome Expression Microarray containing 33,202 gene-specific 60-mer oligonucleotide probes. Data was quantile normalized and t-test was applied to each gene for statistical significance. Differential gene expression was quantified using the Storey q-value method and data visualized using Spotfire software.
(§2) The D283 cell line was cultured with either 0.2 μM TSA or DMSO for 9 hours to generate gene expression profiles in response to TSA. Total RNA was extracted from treated cells using Trizol (Invitrogen, Carlsbad, Calif.). RNA was further purified using the RNeasy kit (QIAGEN, Valencia, Calif.) per manufacturer's protocol and purity of RNA was determined by the Agilent Bioanalyzer. 2 μg of total RNA was reverse-transcribed with the Chemiluminescent RT-IVT Labeling Kit (Applied Biosystems, Foster City, Calif.) and hybridized to a 60-mer whole genome oligonucleotide microarray (Applied Biosystems, Foster City, Calif.) containing 33,202 probes representing 29,098 genes per manufacturer's protocol. A total of three microarray hybridizations, one for each biological replicate, were performed per treatment. […] Differential gene expression was quantified using Storey q-value method (Storey and Tibshirani, 2003, Proc Natl Acad Sci USA 100, 9440-9445). […]

[4] = system: sFRP 1; test: Expression microarray, TSA fold increase of sFRP1; conditions: D283 medulloblastoma cells
From the text: as §1
(§3) The inventors performed studies that determined that antagonists of Wnt signalling are epigenetically silenced in medulloblastoma.
as §2, with “protocol.” for “protocol. A total of three microarray hybridizations, one for each biological replicate, were performed per treatment.”

[5] = system: WIF 1; test: Expression microarray, TSA fold increase of WIF1; conditions: D283 medulloblastoma cells
From the text: as §1, §3
as §2, with “protocol.” for “protocol. A total of three microarray hybridizations, one for each biological replicate, were performed per treatment.”

[6] = system: Dkk 1; test: Expression microarray, TSA fold increase of Dkk1; conditions: D283 medulloblastoma cells
From the text: as §1, §3
as §2, with “protocol.” for “protocol. A total of three microarray hybridizations, one for each biological replicate, were performed per treatment.”

[7] = system: histone acetylation; test: Western blot analysis of histone acetylation; conditions: D283 cells, 9 hours of TSA exposure
[8] = system: DKK1; test: qPCR of DKK1 expression after TSA
Description: The inventors identified genes by means of the microarray analysis. The results were verified by real time PCR (ABI) in D283 cells using Assay on demand gene expression reagents (ABI) for selected genes. Human Gus was used as the normalizer gene. Real-time PCR was performed on ABI PRISM 7900 HT detection system. Validated genes were assayed in normal brain and medulloblastoma patient samples.
(§4) RNA was isolated from cells and tissues with Triazol (Invitrogen, Carlsbad, Calif.). Real-time PCR was performed on the ABI PRISM 7900 HT detection system using Taq man reagents (Applied Biosystems, Foster City, Calif.) per the manufacturer's recommendations. Gene expression was determined with Assay on Demand gene expression reagents (Applied Biosystems, Foster City, Calif.). All assays were done in triplicate.

[9] = system: p21; test: qPCR of p21 mRNA after TSA; conditions: TSA 0.2 μM, D283, Daoy and MB 100 primary cells, n=3
Description: as §4

[10] = system: RASSF1; test: qPCR of RASSF1 mRNA after TSA; conditions: TSA 0.2 μM, D283, Daoy and MB 100 primary cells, n=3
Description: as §4

[11] = system: D283 cells; test: Colony formation assay on soft agar; conditions: transfected D283 cells, after 3 weeks, p<0.001
Description: Wnt inhibitors were cloned into pcDNA3.1, D283 cells transfected and plated on agar. Colonies selected in G418. Total number of colonies formed on agar was counted for three separate experiments (FIG. 8).
Colony formation assays were performed on soft agar. Cells were plated at 1.5×10^5 per well using 6-well plates and transfected with pcDNA3.1D/V5-His-TOPO/DKK1, pcDNA3.1D/N5-His-TOPO/lacZ or pcDNA3.1D/V5-His-TOPO with no insert (mock control) using Trans It-Neural transfection reagents (Mirus). The cells were selected in G418 (1 mg/ml) supplemented media at 24 hr post transfection. The cells were simultaneously harvested to confirm their expression at the mRNA level by real-time PCR. G418 resistant cells were maintained for two weeks in culture. Cells were re-suspended in media containing 0.3% agarose and were overlaid on 0.6% agarose. 0.5 ml media was added to the plates every four days and colony formation was quantified after fixation and staining with methylene blue after 3 weeks.

Compound | cell viability ([1]; 0.1 μM TSA, 24 h, MTT assay) | cells committed to cell death by 24 hours ([1]; 0.2 μM TSA for 9 hours, washout) | cell viability ([1]; 0.2 μM TSA, 9 hours) | cell viability ([1]; 0.2 μm TSA, 24 h, MTT assay) | surviving cells ([1]; TSA exposure between 6 and 9 h, media replaced for additional 24 h) | apoptotic cells ([2]; 0.02 μM TSA) | apoptotic cells ([2]; 0.2 μM TSA) | number of genes induced at least 2-fold [3] | TSA fold increase of sFRP1 [4] | TSA fold increase of WIF1 [5] | TSA fold increase of Dkk1 [6] | histone acetylation [7] | DKK1 expression ([8]; D283 cells, TSA 0.2 μm, qPCR) | DKK1 expression ([8]; MB47, MB100, MB187 primary cells and D283, RT-PCR) | p21 mRNA [9] | RASSF1 mRNA [10] | fewer neo-resistant colonies than controls [11]
CC(/C=C/C(=O)NO)=C\[C@@H](C)C(=O)c1ccc(N(C)C)cc1 [TSA, Trichostatin A] | 50% | 85% | 100% | 30% | 80% | 31% | 79% | 714 | 2.9 fold | 2.5 fold | 1.4 fold | robust histone acetylation | potently induces DKK1 expression | increased on TSA treatment | induction | induction | 
DKK1 |  |  |  |  |  |  |  |  |  |  |  |  |  |  |  |  | 60%
